Values of other authors, collected in patent publication US11311853B2, “Process for the preparation of double crosslinked core-shell polymeric nanoparticles for multimodal imaging and theranostic applications” (FONDAZIONE ISTITUTO ITALIANO DI TECNOLOGIA, priority 2017, dated 2022).

Settings: commercial Gd-DTPA

relaxivity in MRI: 4 mM⁻¹ s⁻¹
Structure (SMILES): O=C([O-])CN(CCN(CC(=O)[O-])CC(=O)O)CCN(CC(=O)[O-])CC(=O)O.[Gd+3] [Gd-DTPA, Gd-diethylenetriaminepentaacetic acid]
